In patent publication US9393447B2, “Liquid non-ionic salt-free skin and hair treatment composition that contains Lauroyl N-Methyl Glucamide” (Formula XO, Inc., priority 2013, dated 2016):

What was measured:
[1] = Temperature at which LMG solutions solidify (gel) on cooling; format: physicochemical
Procedure: The pH was then adjusted to 4-5 with HC1. Separate solutions were also prepared with increasing final concentrations of decyl glucoside: 0.0, 0.5, 1.0, 2.0, 3.0, 4.0, 5.0, 6.0. The compositions were brought into clear, colorless single phase solutions by heating to 60° C. The solutions were then cooled in a refrigerated chamber and the temperature at which gelling occurred was noted. As the concentration of decyl glucoside increased the temperature at which the LMG solution gelled decreased, forming a non-gelling glass at decyl glucoside concentrations of 5% and above. Thus the addition of decyl glucoside at concentrations of 5% or greater to a solution of 10% LMG and 10% glycerol prevents stable gel formation, even at temperatures as low as −20° C.
Composition A was prepared as described in the above table.
At room temperature the solution was viscous in consistency. The solution solidified at 15° C. […] Such phase transitions in a commercial product are unacceptable.

In the case of CCCCCCCCCCCC(=O)N(C)CC(O)C(O)C(O)C(O)CO (stereo not drawn) [LMG, Lauroyl N-Methyl Glucamide], the “Physical state of solution” value ([1]; 0.2 wt % solution of LMG in water, 4° C.) is reported as “loose jelly-like solution”, the “Temperature at which hard gels form” value ([1]; LMG 5-15 wt % in water) is reported as “about 35 °C” and the melting point is reported as ~ 60 °C.
